Measurements published in article PMC3509222 (Molecular Microbiology, 2012).

Biological target: T1, full-length SgmT (His6-SgmT) (Myxococcus xanthus, UniProt Q1D3G7)
T1 sequence (Q1D3G7 1-836): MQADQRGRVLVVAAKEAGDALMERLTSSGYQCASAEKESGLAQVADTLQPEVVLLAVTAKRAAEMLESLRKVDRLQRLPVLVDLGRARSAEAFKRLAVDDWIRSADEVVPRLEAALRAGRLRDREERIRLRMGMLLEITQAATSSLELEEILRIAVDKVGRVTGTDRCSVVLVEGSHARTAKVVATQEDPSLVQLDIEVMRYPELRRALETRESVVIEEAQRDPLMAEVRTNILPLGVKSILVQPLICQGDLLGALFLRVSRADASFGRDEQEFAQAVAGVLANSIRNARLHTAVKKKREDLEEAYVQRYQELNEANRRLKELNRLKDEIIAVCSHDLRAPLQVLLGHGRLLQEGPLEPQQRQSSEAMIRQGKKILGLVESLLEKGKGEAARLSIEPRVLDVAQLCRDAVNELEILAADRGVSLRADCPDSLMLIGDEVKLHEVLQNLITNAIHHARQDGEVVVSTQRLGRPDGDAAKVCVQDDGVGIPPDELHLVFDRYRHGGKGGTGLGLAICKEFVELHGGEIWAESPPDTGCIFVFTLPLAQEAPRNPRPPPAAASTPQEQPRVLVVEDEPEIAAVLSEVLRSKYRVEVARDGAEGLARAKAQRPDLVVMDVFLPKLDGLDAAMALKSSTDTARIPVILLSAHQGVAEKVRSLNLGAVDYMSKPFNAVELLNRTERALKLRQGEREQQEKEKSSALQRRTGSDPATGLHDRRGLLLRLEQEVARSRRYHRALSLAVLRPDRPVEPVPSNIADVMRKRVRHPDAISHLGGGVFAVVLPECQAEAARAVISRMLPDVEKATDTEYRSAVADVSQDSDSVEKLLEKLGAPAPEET
Details: labelled compound; 1.0 mM ATP, 10 mM MgCl2, Tris pH 8.0, 30°C, 30 min

## Nc1ncnc2c1ncn2[C@@H]1O[C@H](COP(=O)(O)OP(=O)(O)OP(=O)(O)O)[C@@H](O)[C@H]1O [[γ-^32P]-ATP]
  autophosphorylation, SDS-PAGE and phosphorimaging: Autophosphorylation of full-length SgmT and phosphotransfer to DigR
